Data reported in patent US11583575B2, “MHC-bound peptide arrays and methods of use thereof” (Roche Sequencing Solutions, Inc., priority 2016, dated 2023).

Columns and labels:
HLA-A2 = HLA-A2 (Homo sapiens, UniProt P04439, D140Y/D185E/D98H/E176V/E277Q/G131W/G231S/I119V/I121R/I166T/I218V/N151K/N90K/P208A/P217A/Q86G/Q94H/R138H/R169H); details: binding at pH 6.5 at 4° C. overnight, FIG. 10A/10B
Procedure: Binding was performed at pH 6.5 at 4° C. overnight.

ESK1 antibody = ESK1 antibody binding specificity to peptide-MHC assemblies for WT1 9mer peptides; details: FIG. 7
Text: Because the array of peptides on the surface is spatially-ordered, the sequence of every peptide is immediately known. Each amino acid of the 9 amino acid peptide was substituted for each of the 20 possible amino acids to identify those positions within this peptide that are essential for forming a proper peptide-MHCI complex. […] The amino acids A, F, I, L, M, V, W and P are nonpolar amino acids. The amino acids G, S, Y, C, Q, T, N are polar amino acids. The amino acids R, K and H are basic amino acids. The amino acids D and E are acidic amino acids.

Sequence | peptide-MHC assembly signal, negatively charged HEX-asp-3HEX linker versus standard 5HEX linker (HLA-A2) | ESK1 antibody binding specificity (relative fluorescence intensity) (ESK1 antibody)
RLYDYFTRV | increase in the peptide-MHC assembly signal | 
RVPGVAPTL |  | cross-reactive target
